Results on 13 molecules are retold here after ChEMBL document CHEMBL5104094, “Chemistry, biosynthesis and biological activity of terpenoids and meroterpenoids in bacteria and fungi isolated from different marine habitats” (Eur J Med Chem, 2021).

Converted amounts (≈) assume the structure as drawn. Structures can show the parent of a compound that is named as a salt. Some results are limits rather than exact numbers.

Data set [1] concerns HCT-116. Kind of data set: Cytotoxicity against human HCT-116 cells assessed as lethal dose. The data set is classed as functional. The settings on record: read-out: LD50 (the source's name).
The subject of data set [2] is RAW264.7. In words: Inhibition of NO production in LPS-stimulated mouse RAW264.7 cells at 10 uM relative to control. The data set is classed as functional.
Data set [3] concerns Panel NCI-60 (60 carcinoma cell lines). Kind of data set: Cytotoxicity against human Panel NCI-60 (60 carcinoma cell lines) cells assessed as cell growth inhibition. The class given is functional, cell-based.
The test system of data set [4] is Staphylococcus aureus. In words: Antimicrobial activity against Staphylococcus aureus assessed as microbial growth inhibition micro broth dilution assay. The data set is classed as functional, organism-based.
The test system of data set [5] is Bacillus subtilis. In words: Antimicrobial activity against Bacillus subtilis assessed as microbial growth inhibition micro broth dilution assay. The data set is classed as functional, organism-based.
Data set [6] deals with Candida albicans. In words: Antimicrobial activity against Candida albicans assessed as microbial growth inhibition micro broth dilution assay. The class given is functional, organism-based.
In data set [7] the test system is Candida parapsilosis. In words: Antimicrobial activity against Candida parapsilosis assessed as microbial growth inhibition micro broth dilution assay. The data set is classed as functional, organism-based. The settings on record: Lodderomyces parapsilosis.
In data set [8] the test system is Cryptococcus neoformans. Kind of data set: Antimicrobial activity against Cryptococcus neoformans assessed as microbial growth inhibition micro broth dilution assay. The class given is functional, organism-based.
The test system of data set [9] is HCT-116. In words: Cytotoxicity against human HCT-116 cells assessed as cell growth inhibition incubated for 72 hrs by Cell Titer Glo assay. The class given is functional, cell-based. To be noted: HCT-116, 72 h.
Data set [10] in a line: Cytotoxicity against human BJ cells assessed as cell growth inhibition incubated for 72 hrs by Cell Titer Glo assay relative to control. The data set is classed as toxicity, cell-based.
For data set [11], the system named is A549. In words: Cytotoxicity against human A549 cells assessed as cell growth inhibition. The data set is classed as functional, cell-based.
Data set [12] deals with HL-60. Kind of data set: Cytotoxicity against human HL-60 cells assessed as cell growth inhibition. The data set is classed as functional, cell-based.
Data set [13] in a line: Cytotoxicity against human HTB26 cells assessed as cell growth inhibition by Alamar blue staining based fluorescence assay. The class given is functional.
The subject of data set [14] is HCT-116. In words: Cytotoxicity against human HCT-116 cells assessed as cell growth inhibition by Alamar blue staining based fluorescence assay. The data set is classed as functional.
Data set [15] concerns MCF7. In words: Cytotoxicity against human MCF7 cells assessed as cell growth inhibition by Alamar blue staining based fluorescence assay. The class given is functional.
Data set [16] is described as follows: Cytotoxicity against African green monkey cells assessed as cell growth inhibition by Alamar blue staining based fluorescence assay. The data set is classed as toxicity. To be noted: African green monkey (Chlorocebus sabaeus), Vero cells.
For data set [17], the system named is T-cell. Kind of data set: Cytotoxicity against mouse spleen T-cells assessed as cell growth inhibition. The data set is classed as functional, cell-based.
For data set [18], the system named is Macrophage. In words: Cytotoxicity against mouse spleen macrophage assessed as cell growth inhibition. The class given is functional, cell-based.
Data set [19] concerns HL-60. In words: Cytotoxicity against human HL-60 cells assessed as cell growth inhibition by MTT assay. The class given is functional, cell-based.
Data set [20] concerns A549. Kind of data set: Cytotoxicity against human A549 cells assessed as cell growth inhibition by SRB assay. The class given is functional, cell-based.
Data set [21] relates to NCI-H460. In words: Cytotoxicity against human NCI-H460 cells assessed as cell growth inhibition incubated for 48 hrs by MTT assay. The data set is classed as functional, cell-based. The settings on record: NCI-H460, 48 h.
In data set [22] the test system is NCI-H460. Kind of data set: Induction of apoptosis in human NCI-H460 cells assessed as fold increase in […] at 35 uM incubated for 48 hrs by Annexin V-FITC/PI staining based flow cytometry. The class given is functional.
The test system of data set [23] is MCF7. In words: Antitumor activity against Adriamycin-resistant human MCF7 cells xenografted in athymic nude BALB/c mouse assessed as tumor growth inhibition at 5 mg/kg, iv measured every 4 days for 40 days by caliper method relative to control. To be noted: MCF7, 960 h, time 40 day, read-out: TGI. The class given is functional.
Data set [24] has as its system NCI-H460. In words: Cytotoxicity against human NCI-H460 assessed as inhibition of cell viability incubated for 48 hrs by MTT assay. The data set is classed as functional, cell-based. The settings on record: NCI-H460, 48 h.
For data set [25], the system named is NCI-H446. In words: Cytotoxicity against human NCI-H446 assessed as inhibition of cell viability incubated for 48 hrs by MTT assay. The data set is classed as functional, cell-based. The settings on record: NCI-H446, 48 h.
Data set [26] deals with SMMC-7721. Kind of data set: Cytotoxicity against human SMMC-7721 cells assessed as cell growth inhibition incubated for 24 hrs by CCK8 assay. The class given is functional, cell-based. The settings on record: SMMC-7721, 24 h.
Data set [27] relates to SMMC-7721. Kind of data set: Cytotoxicity against human SMMC-7721 cells assessed as cell growth inhibition incubated for 48 hrs by CCK8 assay. The settings on record: SMMC-7721, 48 h. The class given is functional, cell-based.

`COc1cc(OC)c2c(c1)[C@H]([C@H](O)/C=C(\C)CC[C@@H]1C(C)=CC[C@@H]3C(C)(C)CCC[C@@]13C)CCC2=O`: the CC50 in [1] turned out to be 2 µg/mL (≈ 4.04 µM).
The molecule `CC1=CC(=O)C[C@@]2(C)CC[C@@H](C(C)CO)C[C@H]12` (some centres not stated) yielded an inhibition at 10 µM in data set [2] of 22.5%.
On to `CC1=CCC[C@@H](C)[C@]1(C)CC[C@@]1(C)c2c(O)cc3c(c2O[C@@H]1C)C(=O)C(C)=C(O)C3=O`, for which the IC50 in [3] was 10 µM.
In the case of `CC1=CC[C@@](O)([C@@]2(C)CCC(=O)O2)C[C@@H]1O`, the IC50 in [4], in [5], in [6], in [7] and in data set [8] was 3 µg/mL in each case.
As to `CC1(C)CCC[C@]2(C)[C@H]3Cc4c(c(O)c(O)c5nc(C(=O)O)ccc45)O[C@]3(C)CC[C@@H]12`, the IC50 in [9] amounted to 10 µM. Further, the inhibition at 72 h in [10] is 43%.
Take `CC1(C)CCC[C@@](C)(c2ccc(CO)cc2O)O1`: the IC50 in [11] and in [12] was more than 50 µg/mL each time.
Regarding `C=C(C)C1C[C@H](O)C2(C)CCCC3C2C1CC(C)C3(C)CC/C(C)=C/[C@@H](O)[C@@H]1CCC(=O)c2c(OC)cc(OC)cc21` (some centres not stated), the IC50 in data set [13] was found to be 10.1 µM; in [14], 11.9 µM; in data set [15], 7.8 µM; in [16], 23.7 µM.
As to `CC(=O)c1nncc2c1C(=O)C1=C(OC(C)(C)[C@H](Cl)C1=O)[C@]2(O)C[C@H]1C(C)(C)[C@@H](Cl)CC[C@]1(C)O`, the half-maximal inhibitory concentration (IC50) in data set [17] and in data set [18] was 40 µM throughout.
For the molecule `CO[C@]12C=C3[C@@H]4O[C@@H]4[C@H](OC(C)=O)[C@H](C)[C@@]3(C)C[C@]13O[C@]3(C)CO2`, the IC50 in data set [19] came to 28.3 µM; in [20], 5.2 µM.
As to `C[C@]12C3=CC(=O)OCC3=C[C@H]3OC(=O)[C@@](C)(C=C[C@H]1O)[C@H]32` [ASPEROLIDE A], in data set [21], the 50% inhibitory concentration (IC50) came to 17.7 µM. Further, the “fold change (FC)” value in data set [22] is reported as 2.9.
In the case of `COc1cccc2c1C(=O)c1c(O)c3c(c(O)c1C2=O)C[C@@](O)(C(=O)CO)C[C@@H]3O[C@H]1C[C@H](N)[C@H](O)[C@H](C)O1` [DOXORUBICIN HYDROCHLORIDE], the inhibition in vivo at 5 mg/kg in data set [23] is 46%.
For `C[C@@]12C3=CC(=O)OCC3=C[C@H]3OC(=O)[C@](C)([C@H]31)[C@@H](O)[C@H]1O[C@H]12` [WENTILACTONE A], the IC50 was 5.56 µM in data set [24] and 1900 nM in [25].
For `C[C@@]12C[C@@H](O)C[C@]3(C)C4=CC(=O)OCC4=C[C@@H](OC1=O)[C@@H]23` [WENTILACTONE B], the figures for the IC50 in data set [26] and in data set [27] were 31 µM and 19 µM, respectively.
